Results: patent publication US4766110A, “Novel complex amido and imido derivatives of carboxyalkyl peptides” (priority 1986, dated 1988)
Entries after “also recorded” stand apart in the source; their conditions may differ.

Key:
[1] = target: T1, human plasma angiotensin converting enzyme (Homo sapiens, UniProt P12821); experiment: In vitro assay of inhibition of angiotensin converting enzyme; assay type: biochemical; conditions: [3H]benzoyl-Gly-His-Leu 80 nM, pH 8.0, 37° C., 15 minutes, I50 approximates Ki
T1 construct: partially-purified human plasma angiotensin converting enzyme; from tissue; host or cells: human plasma
Method: Compounds of this invention were assayed through the following protocol: 25 microliters of buffer (0.05M Hepes buffer, pH 8.0, plus 0.1M NaCl and 0.75M Na2 SO4) or 25 microliters of an inhibitor in buffer was added to the bottom of a 7 ml liquid scintillation vial. To this was added 100 microliters of buffered substrate [S], [^3 H]benzoyl-Gly-His-Leu, 80 nM (25 Ci/mmole). The reaction was started by adding 100 microliters of partially-purified human plasma angiotensin converting enzyme, or 100 microliters of buffer alone. The concentration of enzyme [E] used was that required to hydrolyze 8-12% of substrate when incubated at 37° C. for 15 minutes. The scintillation vials and their contents were incubated at 37° C. for 15 minutes, and the reactions were stopped by adding 200 microliters of 0.5M HCl to each vial. The radioactive reaction product, [^3 H]benzoyl-Gly(hippuric acid), was separated from unhydrolyzed substrate by adding and mixing (by inversion) 3 ml of Ventrex Cocktail No. 1 (Ventrex Laboratories, Inc., Portland, Maine), a fluid disclosed in copending U.S. patent application Ser. No. 184,653, filed Sept. 6, 1980. Extractable ^3 H was quantified by liquid scintillation counting. Substrate, in c.p.m., was quantified by scintillation counting of a vial containing 100 μl of buffered substrate in 5 ml of RIAfluor (New England Nuclear). The reaction mixture containing al constituents except for inhibitor was termed the control (C). The reaction mixture lacking enzyme and inhibitor was called the blank (B). Reaction mixtures containing inhibitor (varied over the range of 10^-4 -10^-12 M) were called the test (T) reactions. Under the conditions of this assay, the reaction obeys first order enzyme kinetics, thus the concentration of inhibitor required to inhibit the rate of hydrolysis by half (I50) approximates the Ki value. The results were estimated by use of the formula: [formula] where C=control c.p.m.; B=blank c.p.m.; [S]=substrate c.p.m. The factor 100 converts fractional substrate utilization into percentage utilization,and 1/15 minute corrects to percentage substrate utilization/minute. Thus, [E] is enzyme activity in percentage substrate utilization/minute. By substituting T for C, hydrolysis rates are computed for the test reaction mixtures. By comparing a given test rate against the control rate, the degree of inhibition can be computed.

[2] = system: mean arterial blood pressure response to angiotensin I; experiment: Intravenous effectiveness: blood pressure response to angiotensin I in anesthetized rats; assay type: in vivo; conditions: for Blood Pressure Response to 400 ng/kg of Angiotensin I: rat, 0.5 μmole/kg IV
Method: Rats (190-290 g body weight) were fasted overnight and then anesthetized with intraperitoneal pentobarbital, 50-60 mg/kg. Tracheostomy was performed and the animals were ventilated mechanically. A cannula was inserted into a femoral vein for injection of angiotensin I, and a second cannula was inserted into a common carotid artery for direct measurement of arterial blood pressure. Heparin, 1,000 units, was injected via the femoral vein to prevent coagulation. Blood pressure was measured with a pressure transducer connected to a polygraph. The rats were injected with […] of angiotensin I in 20 μl of 0.9 g % NaCl, an amount of angiotensin I sufficient to raise mean arterial blood pressure by approximately 48 mm Hg.
After the responsiveness of a given rat to angiotensin I was established, the named compound at 0.5 μmole/kg (drug dissolved in 15 microliters of 0.9% NaCl) was given intravenously. At time intervals, the effects of 400 ng/kg of angiotensin I on mean arterial blood pressure were tested. Results are shown below:
Experiments were carried out using rats according to Example 30.

[3] = cited from earlier work
[4] = Loss of activity of aqueous SQ14225 solution on standing; assay type: physicochemical; conditions: 1 mg per ml, pH of about 8, ambient conditions

T1 sequence (P12821 30-1232 limits assumed): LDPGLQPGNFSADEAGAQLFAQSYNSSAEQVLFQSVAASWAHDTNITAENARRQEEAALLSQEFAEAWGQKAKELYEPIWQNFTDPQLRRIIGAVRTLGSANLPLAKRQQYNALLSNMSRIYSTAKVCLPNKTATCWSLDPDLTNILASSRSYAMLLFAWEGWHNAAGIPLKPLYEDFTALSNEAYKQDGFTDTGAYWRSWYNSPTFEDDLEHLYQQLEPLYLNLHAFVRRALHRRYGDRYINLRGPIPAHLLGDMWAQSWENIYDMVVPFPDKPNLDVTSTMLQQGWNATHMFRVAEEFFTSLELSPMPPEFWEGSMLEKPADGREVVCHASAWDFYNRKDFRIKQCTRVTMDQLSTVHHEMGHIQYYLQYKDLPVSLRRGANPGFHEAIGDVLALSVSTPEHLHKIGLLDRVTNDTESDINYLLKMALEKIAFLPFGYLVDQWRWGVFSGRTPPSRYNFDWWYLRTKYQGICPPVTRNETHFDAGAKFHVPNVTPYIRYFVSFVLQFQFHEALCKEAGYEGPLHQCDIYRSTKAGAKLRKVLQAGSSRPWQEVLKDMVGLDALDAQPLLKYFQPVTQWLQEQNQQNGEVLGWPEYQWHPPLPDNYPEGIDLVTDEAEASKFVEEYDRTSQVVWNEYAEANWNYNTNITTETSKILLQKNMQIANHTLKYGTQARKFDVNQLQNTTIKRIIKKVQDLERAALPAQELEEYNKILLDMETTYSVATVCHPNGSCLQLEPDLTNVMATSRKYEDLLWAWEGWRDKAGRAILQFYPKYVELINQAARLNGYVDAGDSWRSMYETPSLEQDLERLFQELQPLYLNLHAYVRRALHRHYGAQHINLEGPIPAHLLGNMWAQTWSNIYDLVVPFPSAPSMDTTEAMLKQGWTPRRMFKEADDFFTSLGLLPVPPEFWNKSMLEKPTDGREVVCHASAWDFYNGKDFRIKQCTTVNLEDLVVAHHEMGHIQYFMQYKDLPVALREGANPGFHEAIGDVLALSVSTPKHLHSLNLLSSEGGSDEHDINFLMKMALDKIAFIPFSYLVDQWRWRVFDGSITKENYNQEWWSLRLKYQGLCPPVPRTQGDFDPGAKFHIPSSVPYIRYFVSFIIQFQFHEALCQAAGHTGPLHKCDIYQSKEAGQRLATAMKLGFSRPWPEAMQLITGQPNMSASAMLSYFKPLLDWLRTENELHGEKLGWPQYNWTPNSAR

Compound | IC50 [1] [nM] | Blood Pressure Response to 400 ng/kg of Angiotensin I ([2]; 5 min after administration) | Blood Pressure Response to 400 ng/kg of Angiotensin I ([2]; 10 min after administration) | Blood Pressure Response to 400 ng/kg of Angiotensin I ([2]; 15 min after administration) | Blood Pressure Response to 400 ng/kg of Angiotensin I ([2]; 20 min after administration) | Blood Pressure Response to 400 ng/kg of Angiotensin I ([2]; 25 min after administration) | Blood Pressure Response to 400 ng/kg of Angiotensin I ([2]; 30 min after administration) | Blood Pressure Response to 400 ng/kg of Angiotensin I ([2]; 50 min after administration) | Blood Pressure Response to 400 ng/kg of Angiotensin I ([2]; 60 min after administration) | Blood Pressure Response to 400 ng/kg of Angiotensin I ([2]; 70 min after administration) | Blood Pressure Response to 400 ng/kg of Angiotensin I ([2]; 80 min after administration) | Blood Pressure Response to 400 ng/kg of Angiotensin I ([2]; +1 min after administration) | also measured
CC(N[C@@H](CCC(=O)Nc1ccc(I)cc1)C(=O)O)C(=O)N1CCC[C@H]1C(=O)O (stereo partly drawn) [Example 27, N-[L-1-carboxy-3-(carbo-4-iodo-anilide)propyl]-Alanyl-L-Proline] | 0.23 | 42 % of Control | 46 % of Control | 52 % of Control | 60 % of Control | 67 % of Control | 71 % of Control | 83 % of Control | 92 % of Control | 100 % of Control | 104 % of Control | 33 % of Control | IC50 ([1]; listed as N-[L-1-carboxy-3-(carbo-4-iodoanilide)propyl]-D,L-Ala-L-Pro): ~1 nM; increase in intravenous effectiveness on removal of iodine ([2]; de-iodo compound versus the 4-iodoanilide): three-fold; Blood Pressure Response to 400 ng/kg of Angiotensin I ([2]; 35 min after administration): 71 % of Control
CC(N[C@@H](CCC(=O)Nc1ccccc1)C(=O)O)C(=O)N1CCC[C@H]1C(=O)O (stereo partly drawn) [Example 26, N-[L-1-carboxy-3-(carbo-anilide)propyl]-Alanyl-L-Proline] | 5.2 | 37 % of Control | 37 % of Control | 40 % of Control | 40 % of Control | 40 % of Control | 35 % of Control | 46 % of Control | 46 % of Control | 48 % of Control | 52 % of Control | 42 % of Control | IC50 ([1]; listed as N-[L-1-carboxy-3-(carboanilide)propyl]-D,L-Ala-L-Pro): ~1 nM; Blood Pressure Response to 400 ng/kg of Angiotensin I ([2]; 40 min after administration): 35 % of Control; Blood Pressure Response to 400 ng/kg of Angiotensin I ([2]; 90 min after administration): 54 % of Control; Blood Pressure Response to 400 ng/kg of Angiotensin I ([2]; 102 min after administration): 62.5 % of Control
CC(N[C@@H](CC(=O)N1CCCC1)C(=O)O)C(=O)N1CCC[C@H]1C(=O)O (stereo partly drawn) [Example 28, N-[L-1-carboxy-2-(carbopyrrolide)ethyl]-Alanyl-L-Proline] | 140 | – | – | – | – | – | – | – | – | – | – | – | IC50 ([1]; listed as N-[L-1-carboxy-2-(carbopyrrolide)ethyl]-D,L-Ala-Pro): ~100 nM
C[C@H](CS)C(=O)N1CCC[C@H]1C(=O)O [SQ14225, D-3-mercapto-2-methylpropanoyl-L-proline] | – | – | – | – | – | – | – | – | – | – | – | – | renal biopsy findings ([3]; 13 patients treated with SQ14225, Hoorntje et al.): evidence of immune complex deposition along the glomerular basement membranes; adverse effects in man ([3]; patients, Gavras et al.): occasional allergic reactions; also recorded: fevers and rashes; activity of fresh aqueous solution on standing [4]: becomes substantially less active upon standing for as little as 30 minutes
